Among the data in US20020111274A1, “1-alkyl-3-[1-(substituted phenyl) benzotriazol-6-yl] uracils” (BASF Aktiengesellschaft, priority 2000, published 2002) are melting point values, retold here.

As usually defined, the melting point is the temperature of the solid-liquid transition. `COc1ccc(C)cc1-n1nnc2cc(F)c(-n3c(=O)cc(C(F)(F)F)[nH]c3=O)cc21` [Example 2, 3-[5-fluoro-1-(2-methoxy-5-methylphenyl)-1H-1,2,3-benzotriazol-6-yl]-6-(trifluoromethyl)-2,4(1H,3H)-pyrimidinedione] showed a melting point of 145 to 150 °C.

For the molecule `CCc1ccc(-n2nnc3cc(F)c(-n4c(=O)cc(C(F)(F)F)[nH]c4=O)cc32)cc1` [Example 3, 3-[1-(4-ethylphenyl)-5-fluoro-1H-1,2,3-benzotriazol-6-yl]-6-(trifluoromethyl)-2,4(1H,3H)-pyrimidinedione], the melting point lay within 160 to 164 °C.
